Assay results taken from US7208502B2, “Methods of treating conditions associated with an Edg-3 receptor” (Maniv Energy Capital, priority 2002, dated 2007).

Experiments:
[1] = biological target: T1, Edg-2 (Homo sapiens, UniProt Q92633); assay: Intracellular calcium assay, LPA-stimulated, HTC cells expressing Edg-2; format: cell-based; conditions: concentrations as high as 20 µM
T1 construct: expressed in transfected cells; host or cells: HTC rat hepatoma cells

[2] = biological target: T2, Edg-7 (Homo sapiens, UniProt Q9UBY5); assay: Intracellular calcium assay, LPA-stimulated, HTC cells expressing Edg-7; format: cell-based; conditions: concentrations as high as 20 µM
T2 construct: expressed in transfected cells; host or cells: HTC rat hepatoma cells
T2 sequence (Q9UBY5 1-353): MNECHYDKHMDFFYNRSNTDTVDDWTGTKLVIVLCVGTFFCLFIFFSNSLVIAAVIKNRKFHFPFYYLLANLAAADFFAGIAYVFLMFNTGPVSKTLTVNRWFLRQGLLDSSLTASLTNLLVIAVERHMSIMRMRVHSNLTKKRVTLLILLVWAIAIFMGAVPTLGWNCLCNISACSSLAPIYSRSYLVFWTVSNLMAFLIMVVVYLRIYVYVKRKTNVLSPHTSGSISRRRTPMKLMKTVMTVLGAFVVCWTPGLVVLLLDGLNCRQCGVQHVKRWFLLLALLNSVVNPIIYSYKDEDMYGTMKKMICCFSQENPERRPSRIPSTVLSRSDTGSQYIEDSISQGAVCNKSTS

[3] = biological target: T3, Edg-1 (Homo sapiens, UniProt P21453); assay: Intracellular calcium assay, S1P-stimulated, HTC cells expressing Edg-1; format: cell-based; conditions: concentrations as high as 20 µM
T3 construct: expressed in transfected cells; host or cells: HTC rat hepatoma cells

[4] = biological target: T4, Edg-5 (Homo sapiens, UniProt O95136); assay: Intracellular calcium assay, S1P-stimulated, HTC cells expressing Edg-5; format: cell-based; conditions: concentrations as high as 20 µM
T4 construct: expressed in transfected cells; host or cells: HTC rat hepatoma cells

[5] = biological target: T5, Edg-6 (Homo sapiens, UniProt O95977); assay: Intracellular calcium assay, S1P-stimulated, HTC cells expressing Edg-6; format: cell-based; conditions: concentrations as high as 20 µM
T5 construct: expressed in transfected cells; host or cells: HTC rat hepatoma cells
T5 sequence (O95977 1-384): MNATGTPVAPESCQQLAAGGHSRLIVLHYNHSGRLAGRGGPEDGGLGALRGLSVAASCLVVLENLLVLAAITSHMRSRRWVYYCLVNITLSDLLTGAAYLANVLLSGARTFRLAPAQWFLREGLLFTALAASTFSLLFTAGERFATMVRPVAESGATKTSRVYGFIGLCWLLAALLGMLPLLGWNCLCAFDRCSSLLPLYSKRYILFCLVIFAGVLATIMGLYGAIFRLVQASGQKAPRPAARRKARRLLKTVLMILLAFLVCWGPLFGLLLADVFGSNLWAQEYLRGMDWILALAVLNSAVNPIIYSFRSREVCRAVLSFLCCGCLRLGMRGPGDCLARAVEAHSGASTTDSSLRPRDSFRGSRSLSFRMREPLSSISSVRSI

[6] = tested on: Adrenergic α2; assay: Radioligand binding assay, 3H Rauwolscine; parameters: species or system Wistar rat; conditions: 10 μM; significance criteria ≧50% of max stimulation or inhibition
Protocol: (§1) In order to test the selectivity of compounds, various enzyme assays as well as radioligand binding assays were performed using numerous non-Edg receptor targets as listed below.
(§2) A radioligand binding assay was performed using adrenergic α1 according to the method of Greengrass and Bremner 1979, Eur. J. Pharmacol. 55:323–326. A radioligand binding assay was performed using adrenergic α2 according to the method of Boyajian and Leslie, 1987, J. Pharmacol. Exp. Ther. 241:1092–1098. A radioligand binding assay was performed using adrenergic β according to the method of Feve et al., 1994, Proc. Natl. Acad. Sci. USA 91:5677–5681. A radioligand binding assay was performed using angiotensin AT2 according to the method of Whitebread et al., 1991, Biochem. Biophys. Res. Comm. 181:1365–1371. A radioligand binding assay was performed using calcium channel Type L, dihydropyridine according to the method of Ehlert et al., 1982, Life Sci. 30:2191–2202. A radioligand binding assay was performed using dopamine D2L according to the method of Bunzo et al., 1988, Nature 336:783–787. A radioligand binding assay was performed using endothelin ETA according to the method of Mihara et al., 1994, J. Phrmacol. Exp Ther. 268:1122–1127. A radioligand binding assay was performed using histamine H1 Central according to the method of Hill et al., 1978, J. Neurochem. 31:997–1004. […]
(§3) Quantitation Method: Radioligand Binding […]

[7] = biological target: T6, Angiotensin AT2 (Homo sapiens, UniProt P50052); assay: Radioligand binding assay, 125I CGP-42112A; conditions: 10 μM; significance criteria ≧50% of max stimulation or inhibition
T6 construct: expressed in transfected cells; host or cells: HeLa cells
T6 sequence (P50052 1-363): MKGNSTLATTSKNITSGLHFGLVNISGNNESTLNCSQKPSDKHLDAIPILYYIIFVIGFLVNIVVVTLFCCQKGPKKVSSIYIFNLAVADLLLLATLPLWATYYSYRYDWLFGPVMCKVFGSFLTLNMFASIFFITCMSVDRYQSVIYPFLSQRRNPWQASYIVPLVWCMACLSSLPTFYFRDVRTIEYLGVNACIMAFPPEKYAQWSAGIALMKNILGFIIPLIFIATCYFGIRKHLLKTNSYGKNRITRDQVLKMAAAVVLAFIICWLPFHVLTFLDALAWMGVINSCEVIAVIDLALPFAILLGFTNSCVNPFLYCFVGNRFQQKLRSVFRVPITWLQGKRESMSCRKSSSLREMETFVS
Protocol: as §1, §2, §3

[8] = tested on: Serotonin 5-HT1, non-selective; assay: Radioligand binding assay, 3H Serotonin (5-HT) Trifluoroacetate; parameters: species or system Wistar rat; conditions: 10 μM; significance criteria ≧50% of max stimulation or inhibition
Protocol: as §1, §2, §3

T1 sequence (Q92633 whole entry): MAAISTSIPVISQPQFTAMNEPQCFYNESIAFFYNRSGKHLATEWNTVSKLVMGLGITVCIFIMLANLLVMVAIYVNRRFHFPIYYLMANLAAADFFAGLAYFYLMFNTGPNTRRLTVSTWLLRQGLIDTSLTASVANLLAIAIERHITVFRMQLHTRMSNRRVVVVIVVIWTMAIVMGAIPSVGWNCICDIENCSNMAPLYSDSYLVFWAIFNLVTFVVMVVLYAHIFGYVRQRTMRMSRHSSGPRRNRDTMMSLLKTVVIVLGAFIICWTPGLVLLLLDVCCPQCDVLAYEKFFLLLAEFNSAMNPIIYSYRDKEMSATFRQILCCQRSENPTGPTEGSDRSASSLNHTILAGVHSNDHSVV
T4 sequence (O95136 whole entry): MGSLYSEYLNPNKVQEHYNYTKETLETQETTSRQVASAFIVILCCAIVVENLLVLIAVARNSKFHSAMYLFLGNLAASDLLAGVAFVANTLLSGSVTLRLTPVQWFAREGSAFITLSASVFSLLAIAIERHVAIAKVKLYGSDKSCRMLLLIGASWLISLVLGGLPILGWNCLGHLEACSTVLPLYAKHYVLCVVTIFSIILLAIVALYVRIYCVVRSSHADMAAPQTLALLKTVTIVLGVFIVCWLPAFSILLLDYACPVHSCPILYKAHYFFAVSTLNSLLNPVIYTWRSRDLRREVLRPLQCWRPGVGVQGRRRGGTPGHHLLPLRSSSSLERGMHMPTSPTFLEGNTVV
T3 sequence (P21453 whole entry): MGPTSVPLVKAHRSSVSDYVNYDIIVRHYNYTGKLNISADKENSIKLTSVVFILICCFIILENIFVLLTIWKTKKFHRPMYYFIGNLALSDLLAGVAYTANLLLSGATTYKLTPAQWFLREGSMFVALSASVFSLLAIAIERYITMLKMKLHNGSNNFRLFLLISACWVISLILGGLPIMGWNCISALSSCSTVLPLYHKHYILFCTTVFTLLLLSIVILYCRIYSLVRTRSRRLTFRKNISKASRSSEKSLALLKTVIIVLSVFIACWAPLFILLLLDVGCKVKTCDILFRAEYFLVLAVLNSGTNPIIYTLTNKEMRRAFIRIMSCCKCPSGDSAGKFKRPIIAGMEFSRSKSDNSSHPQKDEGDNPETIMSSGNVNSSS

Compound: Cc1c(-c2ccccc2)nc2ccccc2c1C(=O)NCc1ccc(F)cc1 [Compound 101, 3-methyl-2-phenyl-quinoline-4-carboxylic acid 4-fluoro-benzylamide]
- inhibition of LPA-stimulated calcium increases, Edg-2 [1]: did not inhibit
- inhibition of LPA-stimulated calcium increases, Edg-7 [2]: did not inhibit
- inhibition of S1P-stimulated calcium increases, Edg-1 [3]: did not inhibit
- inhibition of S1P-stimulated calcium increases, Edg-5 [4]: did not inhibit
- inhibition of S1P-stimulated calcium increases, Edg-6 [5]: did not inhibit
- activity in standard binding assay, Adrenergic α2 [6]: no activity
- activity in standard binding assay, Angiotensin AT2 [7]: no activity
- activity in standard binding assay, Serotonin 5-HT1, non-selective [8]: no activity
